Data set [1] is described as follows: UV-vis spectral response and spectrophotometric titration with CTP. In kind it is binding. As to the method: In order to examine the binding behaviour of the Zn-complex (L.Zn) (Scheme 1, Formula 1A) to various important anions (like ATP, CTP, ADP, AMP, PPi, H2PO4^−, SO4^2−, CH3CO2^−, I^−, Br^−, Cl^− and F^−) the following experiment was conducted. A solution (˜21 mM) for of sodium salts of ATP, CTP, ADP, AMP, PPi, H2PO4^−, SO4^−, CH3CO2^−, I^−, Br^−, Cl^−, and F^− were prepared using respective salt in 10 mM HEPES buffer solutions (pH 7.2) and was stored for use. Further, a solution (44.35 μM) of the compound L.Zn (Scheme 1, Formula 1A) was prepared using doubly-distilled and deionized water and stored. These stored solutions were used on the day of preparation of the solution for experiment. […]
A solution of L.Zn (Scheme 1, Formula 1A) (8.87 μM) in aqueous medium was treated with excess amount of ˜500 μM of different phosphate anions like H2PO4^−, PPi, AMP, ADP, ATP and CTP. […] Thus L.Zn (Scheme 1, Formula 1A) can bind ATP selectively among various phosphate anions and the color change associated with the binding of ATP can be detected through naked eye (FIG. 2).
A 1.0 mL of stored solution L.Zn (Scheme 1, Formula 1A) ([L.Zn]=8.95 μM) was put in a test-tube, such that, the final concentration of the L.Zn solution was 1.79 μM to this varying amount of CTP (0.1-4 mL of the stored CTP solution (12.71 mM) was added. Resulting solution was then diluted by addition of a 10 mM HEPES buffer solution (N-(2-hydroxyethyl)-piperazine-N′-2-ethanesulfonic acid) (pH 7.2) maintaining total volume of the resultant aliquot of 5 mL, which was used for spectrophotometric measurements by putting a quartz spectrophotometric cell (3.5 mL capacity). The total spectral change was measured using a spectrophotometer (Shimadzu UV-3101 PC) after appropriate base line correction. […]

The subject of data set [2] is Yeast cells (Saccharomyces cerevisiae). Nature of the data set: Staining of Yeast cells, light microscopy and SEM. The class given is cell-based. As to the method:
The isolates of Saccharomyces sp. were cultured in GYE (glucose yeast extract agar) media, Bacillus sp. in Nutrient broth, and Pseudomonas sp. in King's B medium for 24 hour at 37° C. […] of this was taken and was allowed to incubate at 30 to 40° C. along with 100 μl of L.Zn (Scheme 1, Formula 1A) (1.16×10^−4 M) solution. The samples were fixed overnight at room temperature 25-30° C. with 2% (v/v) glutaraldehyde in 0.1 M phosphate buffer at pH 7.5. The samples were then washed with 0.1 M phosphate buffer (pH 7.5) at room temperature 25-30° C. for 1 hour. Post-fixation was carried out in 2% (w/v) osmium tetroxide (OsO4) in the same buffer and was washed once with 0.1 M phosphate buffer for 20 minutes. Then, the water was removed by a graded water-ethanol series; 25% ethanol for 15 min, 50% ethanol for 15 min, 75% ethanol for 30 min, 90% ethanol for 60 min, absolute alcohol for 30 min. The specimens were rinsed in buffer and coated with gold in a sputter coater (Polaron SC7620) prior to microscopy. The material was examined in a Scanning Electron Microscope (SEM) LEO 1430 VP at an accelerating Voltage of 15 kV.
The isolates of Saccharomyces sp. were cultured in GYE (glucose yeast extract agar) media, Bacillus sp. in Nutrient broth, and Pseudomonas sp. in King's B medium for 24 hour at 37° C. 1001 of this was taken and was allowed to incubate at room temperature along with 1001 of [L.Zn]=1.16×10^−4M solution (pH 7.2, 10 mM HEPES buffer solution). The samples were fixed overnight at 25 to 35° C. with 2% (v/v) glutaraldehyde in 0.1 M phosphate buffer at pH 7.5. The samples were then; washed with 0.1 M phosphate buffer (pH 7.5) at 25 to 35° C. for 1 hour. Post-fixation was carried out in 2% (w/v) osmium tetroxide (OsO4) in the same buffer and was washed once with 0.1 M phosphate buffer for 20 minutes. Then, the water was removed by a graded water-ethanol series; 25% ethanol for 15 min, 50% ethanol for 15 min, 75% ethanol for 30 min, 90% ethanol for 60 min, absolute alcohol for 30 min. The specimens were rinsed in buffer and coated with gold in a sputter coater (Polaron SC7620) prior to microscopy. The material was examined in a scanning electron microscope (SEM) LEO 1430 VP at an accelerating Voltage of 15 kV.
We have therefore, been able to use the receptor molecule, L.Zn (Scheme 1, Formula 1A) for staining Eukaryotic cells. Yeast cells were exposed to the receptor molecule L.Zn (Scheme 1, Formula 1A) (1.16×10^−4 M) for 20 min or L.Zn-CD (Scheme 2) (([L.Zn]=0.5×10^−3 M [α-CD]=2.92×10^−3 M) for 2 min followed by subsequent washing with water mixtures and then viewed under a light microscope (AXIO IMAGER-Carl Zeiss).
Ethanol is known to act as a dehydrator and a good fixative of biological samples. […] This confirms the binding of the ATP ions of the cell surface to L.Zn (Scheme 1, Formula 1A) as the plausible reason for the observed staining. […] This observation could be explained on the basis of the reversible binding of ATP, produced in situ in the Yeast cells.

Turning to `CN(C)c1ccc(N=Nc2ccc(S(=O)(=O)N3CCCNCCNCCCNCC3)cc2)cc1.O=[N+]([O-])[O-].O=[N+]([O-])[O-].[Zn+2]` [L.Zn], in data set [1] (L.Zn 8.87 μM in aqueous medium, ~500 μM anion), the “color change on addition of CTP (naked eye)” value is listed as “Slight color change”. Further, the “red shift of absorption on addition of CTP” value in data set [1] (pH 7.2, L.Zn 8.87 μM, anion 17 mM) was found to be 9 nm. In addition, in data set [1] (spectrophotometric titration, pH 7.2, 10 mM HEPES, 25° C.), the “binding constant for the formation of the complex L.Zn-CTP” value is listed as 220 (±+15) M^−1. Also, in data set [2] (L.Zn 0.116 mM, light microscopy), the “color of Yeast cells after treatment” value is “pink-violet”. The “growth of colonies streaked on nutrient agar plates after incubation with sensor” value in data set [2] (Saccharamyces species in GYE media, sensor 1.0×10^−4 M, 25° C., 10 mins) is “colonies of the test microbes grew”. Moreover, in data set [2] (control treatment of cells), the “control experiments: change in color of Yeast cells” value is “no such change in color was observed”. In addition, the “destaining of stained Yeast cells by citrate (reversible binding)” value in data set [2] (excess (50 mole equivalent) of citrate ion) is on record as “became colorless”. Further, the “stability of staining after washing” value in data set [2] (washing with water/ethanol (70/30, v/v)) is “stable”.

Source of the values: patent publication US20130130306A1, “ZN (II) BASED COLORIMETRIC SENSOR AND PROCESS FOR THE PREPARATION THEREOF” (COUNCIL OF SCIENTIFIC & INDUSTRIAL RESEARCH, priority 2010, published 2013).
